# Test results reported in the supplement of paper PMC11061612.
# Tests used:
# Experiment in all cases: combination Emax (second highest fraction inhibited in the dose matrix, 72 h); higher = more inhibition; extreme values may be limits of the assay
# EW-24 (Ewing's Sarcoma) = system: EW-24 (Ewing's Sarcoma)
# Outline: (§1)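 Cell lines in DMEM/F12 or RPMI with 10% FBS were plated in 1536-well plates, held 24 hours at 37°C, 5% CO2, then given two-drug dose matrices for 72 hours (DMSO typically 0.2%). Viability was read by CellTiter-Glo 2.0 luminescence and scaled as inhibition from 0 (vehicle wells) to 1 (blank wells). Combination Emax is the second-highest inhibition in the matrix; Bliss excess is observed combination effect minus expected EA + EB − EA·EB, EA and EB being single-agent effects.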
# [1] = system: HSC-4 (Oral Cavity Carcinoma)
# Outline: as §1
# [2] = system: LU-65 (Non-Small Cell Lung Carcinoma)
# Outline: as §1
# YH-13 (Glioblastoma) = system: YH-13 (Glioblastoma)
# Outline: as §1
# [3] = system: HGC-27 (Gastric Carcinoma)
# Outline: as §1
# [4] = system: MLMA (Other Blood Carcinomas)
# Outline: as §1
# [5] = system: SW13 (Other Solid Carcinomas)
# Outline: as §1
# [6] = system: Hs-766T (Pancreatic Carcinoma)
# Outline: as §1
# [7] = system: OSC-20 (Oral Cavity Carcinoma)
# Outline: as §1
# [8] = system: NCI-H727 (Other Solid Carcinomas)
# Outline: as §1
# PWR-1E (Non-Cancerous) = system: PWR-1E (Non-Cancerous)
# Outline: as §1
# [9] = system: Caov-4 (Ovarian Carcinoma)
# Outline: as §1
# [10] = system: NCI-H358 (Lung Adenocarcinoma)
# Outline: as §1
# [11] = system: OE19 (Esophageal Adenocarcinoma)
# Outline: as §1
# [12] = system: NUGC-3 (Gastric Carcinoma)
# Outline: as §1
# [13] = system: EoL-1-cell (Acute Myeloid Leukemia)
# Outline: as §1
# D-263MG (Glioblastoma) = system: D-263MG (Glioblastoma)
# Outline: as §1
# NB69 (Neuroblastoma) = system: NB69 (Neuroblastoma)
# Outline: as §1
# [14] = system: MIA-PaCa-2 (Pancreatic Carcinoma)
# Outline: as §1
# [15] = system: HOP-62 (Lung Adenocarcinoma)
# Outline: as §1
SMILES,combination Emax (EW-24 (Ewing's Sarcoma)),combination Emax [1],combination Emax [2],combination Emax (YH-13 (Glioblastoma)),combination Emax [3],combination Emax [4],combination Emax [5],combination Emax [6],combination Emax [7],combination Emax [8],combination Emax (PWR-1E (Non-Cancerous)),combination Emax [9],combination Emax [10],combination Emax [11],combination Emax [12],combination Emax [13],combination Emax (D-263MG (Glioblastoma)),combination Emax (NB69 (Neuroblastoma)),combination Emax [14],combination Emax [15]
"C=CCn1c(=O)c2cnc(Nc3ccc(N4CCN(C)CC4)cc3)nc2n1-c1cccc(C(C)(C)O)n1 [AZD1775] + C[C@@H]1COCCN1C2=NC(=NC(=C2)C3(CC3)[S@](=N)(=O)C)C4=C5C=CNC5=NC=C4 [AZD6738] (first compound max 1 µM, partner max 10 µM)",0.652,0.662,0.884,0.69,0.966,0.935,0.636,0.643,0.401,0.654,0.913,0.902,0.732,0.918,0.834,1,0.908,0.971,0.956,0.668
"COc1nnc2ccc(N3CCC(c4ccc(OCCN5CCN(C)C(=O)[C@H]5C)cc4)CC3)nn12 [AZD5153] + C[C@@H]1COCCN1C2=NC(=NC(=C2)C3(CC3)[S@](=N)(=O)C)C4=C5C=CNC5=NC=C4 [AZD6738] (first compound max 1 µM, 7x7, partner max 10 µM)",0.834,0.528,0.734,0.663,0.859,0.967,0.718,0.543,0.309,0.59,0.997,0.894,0.698,0.616,0.775,1,0.465,0.991,0.919,0.664
"Cc1c2c(nn1C)CSCc1cc(n(C)n1)CSc1cc(c3ccccc3c1)OCCCc1c(C(=O)O)n(C)c3c-2c(Cl)ccc13 [AZD5991] + C=CCn1c(=O)c2cnc(Nc3ccc(N4CCN(C)CC4)cc3)nc2n1-c1cccc(C(C)(C)O)n1 [AZD1775] (first compound max 1 µM, partner max 1 µM)",0.402,0.507,0.586,0.411,0.626,0.952,0.881,0.496,0.346,0.358,0.55,0.928,0.649,0.722,0.78,1,0.758,0.944,0.711,0.705
"CC1(C)CCC(CN2CCN(c3ccc(C(=O)NS(=O)(=O)c4ccc(NCC5CCOCC5)c([N+](=O)[O-])c4)c(Oc4cnc5[nH]ccc5c4)c3)CC2)=C(c2ccc(Cl)cc2)C1 [Venetoclax] + Cn1cnc2c(F)c(Nc3ccc(Br)cc3Cl)c(C(=O)NOCCO)cc21 [Selumetinib] (first compound max 1 µM, 7x7, partner max 3 µM)",0.154,0.243,0.538,0.181,0.142,0.93,0.317,0.502,0.172,0.601,0.0808,0.364,0.343,0.182,0.392,1,0.119,0.919,0.403,0.435
"Cc1c2c(nn1C)CSCc1cc(n(C)n1)CSc1cc(c3ccccc3c1)OCCCc1c(C(=O)O)n(C)c3c-2c(Cl)ccc13 [AZD5991] + Cn1cnc2c(F)c(Nc3ccc(Br)cc3Cl)c(C(=O)NOCCO)cc21 [Selumetinib] (first compound max 1 µM, 7x7, partner max 3 µM)",0.214,0.278,0.716,0.178,0.306,0.393,0.828,0.595,0.276,0.65,0.21,0.856,0.485,0.49,0.355,1,0.634,0.982,0.623,0.426
"COc1cccc(OCCCN)c1-c1cc(Nc2cnc(C#N)cn2)n[nH]1 [Prexasertib] + CN(C)CCCOc1ccc(-c2ccc3ncc4c(c3c2)n(C2CCOCC2)c(=O)n4C)cn1 [AZD0156] (first compound max 1 µM, 7x7, partner max 1 µM)",0.68,0.604,0.761,0.777,0.858,0.957,0.322,0.665,0.584,0.717,0.953,0.964,0.775,0.889,0.726,0.998,0.915,0.915,0.754,0.632
"Cc1c2c(nn1C)CSCc1cc(n(C)n1)CSc1cc(c3ccccc3c1)OCCCc1c(C(=O)O)n(C)c3c-2c(Cl)ccc13 [AZD5991] + C[C@@H]1COCCN1C2=NC(=NC(=C2)C3(CC3)[S@](=N)(=O)C)C4=C5C=CNC5=NC=C4 [AZD6738] (first compound max 1 µM, 7x7, partner max 10 µM)",0.53,0.678,0.675,0.46,0.849,0.697,0.854,0.574,0.406,0.412,0.985,0.914,0.632,0.746,0.69,1,0.935,0.967,0.706,0.784
"CC1(C)CCC(CN2CCN(c3ccc(C(=O)NS(=O)(=O)c4ccc(NCC5CCOCC5)c([N+](=O)[O-])c4)c(Oc4cnc5[nH]ccc5c4)c3)CC2)=C(c2ccc(Cl)cc2)C1 [Venetoclax] + C1CN(CCC1(C(=O)N[C@@H](CCO)C2=CC=C(C=C2)Cl)N)C3=NC=NC4=C3C=CN4 [Capivasertib] (first compound max 1 µM, 7x7, partner max 3 µM)",0.395,0.306,0.462,0.259,0.814,0.866,0.254,0.225,0.265,0.482,0.203,0.282,0.33,0.306,0.227,1,0.202,0.426,0.213,0.14
"Cc1c2c(nn1C)CSCc1cc(n(C)n1)CSc1cc(c3ccccc3c1)OCCCc1c(C(=O)O)n(C)c3c-2c(Cl)ccc13 [AZD5991] + C[C@@H](Nc1cc(F)cc(F)c1)c1cc(C(=O)N(C)C)cc2c(=O)cc(N3CCOCC3)oc12 [AZD8186] (first compound max 1 µM, 7x7, partner max 3 µM)",0.291,0.24,0.449,0.585,0.691,0.532,0.947,0.45,0.237,0.274,0.268,0.507,0.282,0.49,0.209,1,0.975,0.894,0.336,0.281
"CN(C)CCCOc1ccc(-c2ccc3ncc4c(c3c2)n(C2CCOCC2)c(=O)n4C)cn1 [AZD0156] + CCN(CCO)CCCOc1ccc2c(Nc3cc(CC(=O)Nc4cccc(F)c4)[nH]n3)ncnc2c1 [AZD2811] (first compound max 1 µM, 7x7, partner max 1 µM)",0.302,0.0498,0.281,0.348,0.866,0.239,0.407,0.0844,0.353,0.155,0.626,0.19,0.157,0.722,0.322,0.999,0.329,0.588,0.376,0.0853
"C[C@@H]1COCCN1c1cc(C2([S@](C)(=N)=O)CC2)nc(-c2ccnc3[nH]ccc23)n1 [AZD6738] + O=C(c1cc(Cc2n[nH]c(=O)c3ccccc23)ccc1F)N1CCN(C(=O)C2CC2)CC1 [Olaparib] (first compound max 10 µM, 7x7, partner max 10 µM)",0.567,0.691,0.751,0.611,0.902,0.988,0.451,0.554,0.387,0.384,0.842,0.969,0.544,0.55,0.778,0.992,0.981,0.94,0.708,0.498
"Cn1cnc2c(F)c(Nc3ccc(Br)cc3Cl)c(C(=O)NOCCO)cc21 [Selumetinib] + CCN(CCO)CCCOc1ccc2c(Nc3cc(CC(=O)Nc4cccc(F)c4)[nH]n3)ncnc2c1 [AZD2811] (first compound max 10 µM, 7x7, partner max 1 µM)",0.427,0.345,0.635,0.429,0.71,0.286,0.615,0.515,0.343,0.622,0.579,0.551,0.499,0.796,0.551,1,0.284,0.921,0.657,0.475
"C=CCn1c(=O)c2cnc(Nc3ccc(N4CCN(C)CC4)cc3)nc2n1-c1cccc(C(C)(C)O)n1 [AZD1775] + O=C(c1cc(Cc2n[nH]c(=O)c3ccccc23)ccc1F)N1CCN(C(=O)C2CC2)CC1 [Olaparib] (first compound max 1 µM, partner max 10 µM)",0.433,0.461,0.609,0.428,0.799,0.882,0.259,0.473,0.289,0.368,0.562,0.779,0.447,0.301,0.547,0.999,0.447,0.893,0.737,0.274
